Test results reported in the NIST ThermoML archive (doi:10.1021/je500380x).
± gives the expanded uncertainty stated by the source.

Test: mn = molality of the nth substance listed, in mol/kg
Conditions: 100 kPa, Liquid; for electrical conductivity: Alternating current cell with electrodes; for viscosity: Falling or rolling sphere viscometry; for mass density: Vibrating tube method

CCC(=O)OCCN1CCNCC1 [2-(piperazin-1-yl)ethyl propionate] + CO
Conditions | electrical conductivity, 293.15 K [S/m] | electrical conductivity, 298.15 K [S/m] | mass density, 293.15 K [kg/m3] | mass density, 298.15 K [kg/m3] | viscosity, 293.15 K [mPa·s] | viscosity, 298.15 K [mPa·s]
m1 = 0.05 | 0.128 ± 0.0013 | 0.132 ± 0.0014 | 794.44 ± 0.15 | 789.75 ± 0.15 | 0.613 ± 0.008 | 0.576 ± 0.007
m1 = 0.1001 | 0.211 ± 0.002 | 0.218 ± 0.002 | 797.52 ± 0.15 | 792.84 ± 0.15 | 0.632 ± 0.008 | 0.592 ± 0.007
m1 = 0.2006 | 0.339 ± 0.003 | 0.351 ± 0.004 | 803.64 ± 0.15 | 798.96 ± 0.15 | 0.675 ± 0.008 | 0.629 ± 0.008
m1 = 0.3003 | 0.432 ± 0.004 | 0.448 ± 0.005 | 809.65 ± 0.15 | 805.01 ± 0.15 | 0.72 ± 0.009 | 0.671 ± 0.008
m1 = 0.3995 | 0.506 ± 0.005 | 0.525 ± 0.005 | 815.7 ± 0.15 | 811.06 ± 0.15 | 0.771 ± 0.01 | 0.716 ± 0.009
m1 = 0.5005 | 0.566 ± 0.006 | 0.59 ± 0.006 | 821.73 ± 0.15 | – | 0.828 ± 0.01 | 0.767 ± 0.01
m1 = 0.6006 | 0.617 ± 0.006 | 0.644 ± 0.006 | 827.94 ± 0.14 | – | 0.89 ± 0.011 | 0.823 ± 0.01
m1 = 0.7007 | 0.657 ± 0.007 | 0.686 ± 0.007 | 834.12 ± 0.14 | – | 0.954 ± 0.012 | 0.881 ± 0.011
m1 = 0.8007 | 0.688 ± 0.007 | 0.72 ± 0.007 | 840.22 ± 0.14 | – | 1.033 ± 0.013 | 0.952 ± 0.012
m1 = 0.9008 | 0.712 ± 0.007 | 0.748 ± 0.008 | 846.35 ± 0.14 | – | 1.118 ± 0.014 | 1.029 ± 0.013
m1 = 1.001 | 0.732 ± 0.007 | 0.77 ± 0.008 | 852.36 ± 0.14 | – | 1.219 ± 0.015 | 1.117 ± 0.014
m1 = 1.2 | 0.757 ± 0.008 | 0.794 ± 0.008 | 864.62 ± 0.14 | – | 1.426 ± 0.018 | 1.303 ± 0.016
m1 = 1.401 | 0.752 ± 0.008 | 0.797 ± 0.008 | 877.59 ± 0.13 | – | 1.719 ± 0.021 | 1.562 ± 0.019
m1 = 1.6 | 0.737 ± 0.007 | 0.784 ± 0.008 | 890.02 ± 0.13 | – | 2.09 ± 0.026 | 1.888 ± 0.023
m1 = 1.801 | 0.706 ± 0.007 | 0.755 ± 0.008 | 903.1 ± 0.13 | – | 2.581 ± 0.032 | 2.319 ± 0.029
m1 = 2 | 0.656 ± 0.007 | 0.708 ± 0.007 | 916.07 ± 0.13 | – | 3.261 ± 0.04 | 2.909 ± 0.036
m1 = 2.203 | 0.605 ± 0.006 | 0.653 ± 0.007 | 929.95 ± 0.12 | – | 4.138 ± 0.051 | 3.661 ± 0.045
m1 = 2.403 | 0.542 ± 0.005 | 0.587 ± 0.006 | 942.83 ± 0.12 | – | 5.479 ± 0.068 | 4.801 ± 0.059
m1 = 2.603 | 0.479 ± 0.005 | 0.518 ± 0.005 | 955.65 ± 0.12 | – | 7.28 ± 0.09 | 6.312 ± 0.078
m1 = 2.803 | 0.409 ± 0.004 | 0.457 ± 0.005 | 969.71 ± 0.12 | – | 9.916 ± 0.12 | 8.495 ± 0.11
m1 = 3.001 | – | – | 982.22 ± 0.11 | – | 14.36 ± 0.18 | 12.13 ± 0.15
m1 = 3.006 | 0.342 ± 0.003 | 0.392 ± 0.004 | – | – | – | –
